The values below come from patent US20250204541A1, “GAS PHASE TREATMENT OF PRODUCE” (priority 2022, published 2025).

This assay deals with Colletotrichum gloeosporioides (Cg). Put plainly: Antifungal activity of vapor against Colletotrichum gloeosporioides in avocados. Type of assay: in vivo. The procedure:
Example 7. The antifungal activity of AITC and DADS vapor against Colletotrichum gloeosporioides (Cg) was tested in avocados. All test pieces were wounded by removing the stem and infected by dispensing 1000 Cg spores suspended in 10 μL of water into the wound. The test groups consisted of avocados that were: untreated and uninfected; untreated and infected; treated by dipping in a solution of 0.1 g/L of prochloraz; exposed to the vapor of 3 mL of AITC disposed in a Petri dish; and exposed to the vapor of 3 mL of DADS disposed in a Petri dish. FIG. 9 quantifies the infection results. AITC vapor reduced the incidence of Cg mold by 97% compared to the untreated test group and 70% compared to the prochloraz treated test group. DADS vapor reduced the incidence of Cg mold by 60% compared to the untreated test group.
Example 8. The antifungal activity of a range of DADS vapor exposure times was tested against Cg in avocados. All test pieces were wounded by removing the stem and infected by dispensing 1000 Cg spores suspended in 10 μL of water into the wound. The test groups consisted of avocados that were: infected and untreated; and exposed to the vapor of 3 mL of DADS in a Petri dish for 24 hours, 48 hours, and 72 hours. FIG. 10 quantifies the infection results. Test group exposed to DADS vapor at all exposure times reduced the incidence of Cg mold compared to the untreated test group. A 24 hour DADS exposure reduced the incidence of Cg mold by 8%. A 48 hour DADS exposure reduced the incidence of Cg mold by 25%. A 72 hour DADS exposure reduced the incidence of Cg mold by 57%.
Example 9. The antifungal activity of a range of AITC and carvacrol vapor exposure times was tested against Cg in avocados. To measure the effect of the various treatments on ripening, durometer shore was taken after 7 days of incubation at ambient temperature and high humidity. All samples were wounded by removing the stem and infected by dispensing 1000 Cg spores suspended in 10 μL of water in the wound. The test groups consisted of avocados that were: infected and left untreated on the benchtop; infected and left untreated under a fume hood; exposed to the vapor of 3 mL of AITC in a Petri dish for 24 hours, 48 hours, and 72 hours; and exposed to the vapor of 3 mL of carvacrol in a Petri dish for 72 hours. FIG. 11 quantifies the infection results. […] All exposure times to AITC vapor reduced the incidence of Cg mold compared to the untreated samples. A 24 hour AITC exposure reduced the incidence of Cg mold by 90%. A 48 hour AITC exposure reduced the incidence of Cg mold by 97%. A 72 hour AITC exposure reduced the incidence of Cg mold by 83%. […]
Example 21. The antifungal activity of avocados exposed to AITC vapor and prochloraz was tested against Cg in avocados. To measure the effect of the various treatments on ripening, durometer shore was taken after 5 days of incubation at ambient temperature (about 20° C. to about 25° C.) and high humidity (about 88% relative humidity to about 93% relative humidity). All samples were wounded by removing the stem and infected by dispensing 1000 Cg spores suspended in 10 μL of water in the wound. Exposure to vapor was done by placing the avocados in an airtight container, dispensing AITC onto Whatman filter paper discs, suspending the discs in front of a battery-powered fan, closing the container and incubating the avocados for 30 minutes. After vapor exposure, the avocados were left at ambient temperature, high humidity, and assessed for Cg mold on day 5. Treatment groups consisted of avocados that were: exposed for 30 minutes to the vapor of 125 μL of AITC disposed on a filter paper disc; dipped in a solution of 0.1 g/L of prochloraz and placed to dry on a rack in front of a fan for 30 min; infected and left untreated; and uninfected and untreated. […] To prepare the 0.1 g/L of prochloraz, 10 mg of prochloraz was mixed with 10 mL of ethanol and 90 mL of water. […] A 24 hour AITC exposure reduced the incidence of Cg mold by 90%. […]

In the case of `C=CCN=C=S` [AITC, allyl isothiocyanate], the “reduction of the incidence of Cg mold” value turned out to be 90% (24 hour AITC exposure as printed); 90% (Example 9, vapor of 3 mL in a Petri dish for 24 hours, 7 days of incubation); 97% (Example 9, vapor of 3 mL in a Petri dish for 48 hours, 7 days of incubation); 83% (Example 9, vapor of 3 mL in a Petri dish for 72 hours, 7 days of incubation). Further, for the setting “Example 21, 30 minutes vapor of 125 μL on filter paper disc, assessed on day 5”, the “incidence of Cg mold” value is “reduced the incidence of Cg mold compared to the untreated samples and the prochloraz treated sample”. Further, for the setting “vapor of 3 mL in a Petri dish”, the “reduction of the incidence of Cg mold compared to the untreated test group” value stood at 97%. For the same compound, for the setting “vapor of 3 mL in a Petri dish, prochloraz 0.1 g/L dip”, the “reduction of the incidence of Cg mold compared to the prochloraz treated test group” value is reported as 70%.
`C=CCSSCC=C` [DADS, diallyl disulfide]: the “reduction of the incidence of Cg mold” value runs as follows: (Example 8, vapor of 3 mL in a Petri dish for 24 hours) 8%; (Example 8, vapor of 3 mL in a Petri dish for 48 hours) 25%; (Example 8, vapor of 3 mL in a Petri dish for 72 hours) 57%. Also, under “vapor of 3 mL in a Petri dish”, the “reduction of the incidence of Cg mold compared to the untreated test group” value was 60%.
